In article PMC6979384, “Characterization of the plant homeodomain (PHD) reader family for their histone tail interactions” (Epigenetics & Chromatin, 2020):

Experiments:
Assay in all cases: Histone peptide microarray
Format in all cases: binding, human
[1] = tested on: TRIM66 (PB); conditions: GST-tagged TRIM66 (PB = PHD + Bromodomain); histone peptide array; arrays performed twice, n of 4
How it was run: (§1)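 Using an optimized microarray protocol, purified GST-tagged PHD fingers were incubated at 0.5 μM on 293 histone peptides with single or multiple modifications, and array signal was recorded as the average of 4 replicates.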

[2] = tested on: KDM4C (TTP); conditions: GST-tagged KDM4C (TTP = Tandem Tudor domain + PHD); histone peptide array; arrays performed twice, n of 4
How it was run: as §1

[3] = tested on: MLL5; conditions: GST-tagged MLL5; histone peptide array; arrays performed twice, n of 4
How it was run: as §1

[4] = tested on: KDM5B (1); conditions: GST-tagged KDM5B (1); histone peptide array; arrays performed twice, n of 4
How it was run: as §1

[5] = tested on: KDM5B (3); conditions: GST-tagged KDM5B (3); histone peptide array; arrays performed twice, n of 4
How it was run: as §1

[6] = tested on: PHF23; conditions: GST-tagged PHF23; histone peptide array; arrays performed twice, n of 4
How it was run: as §1

[7] = tested on: ING1; conditions: GST-tagged ING1; histone peptide array; arrays performed twice, n of 4
How it was run: as §1

[8] = tested on: ING5; conditions: GST-tagged ING5; histone peptide array; arrays performed twice, n of 4
How it was run: as §1

[9] = tested on: CHD5 (PPCC); conditions: GST-tagged CHD5 (PPCC = Dual PHD + Dual Chromodomain); histone peptide array; arrays performed twice, n of 4
How it was run: as §1

[10] = tested on: PHF8; conditions: GST-tagged PHF8; histone peptide array; arrays performed twice, n of 4
How it was run: as §1

[11] = tested on: PHRF1 (RP); conditions: GST-tagged PHRF1 (RP); histone peptide array; arrays performed twice, n of 4
How it was run: as §1

[12] = tested on: DPF2 (PPC2W2); conditions: GST-tagged DPF2 (PPC2W2 = Dual PHD + C2W2-type Zn-finger); histone peptide array; arrays performed twice, n of 4
How it was run: as §1

[13] = tested on: ING2; conditions: GST-tagged ING2; histone peptide array; arrays performed twice, n of 4
How it was run: as §1

[14] = tested on: AIRE (PP); conditions: GST-tagged AIRE (PP); histone peptide array; arrays performed twice, n of 4
How it was run: as §1

[15] = tested on: PHF21A; conditions: GST-tagged PHF21A; histone peptide array; arrays performed twice, n of 4
How it was run: as §1

[16] = tested on: BAZ2B; conditions: GST-tagged BAZ2B; histone peptide array; arrays performed twice, n of 4
How it was run: as §1

[17] = tested on: PHF13; conditions: GST-tagged PHF13; histone peptide array; arrays performed twice, n of 4
How it was run: as §1

[18] = tested on: KDM5A (1); conditions: GST-tagged KDM5A (1); histone peptide array; arrays performed twice, n of 4
How it was run: as §1

[19] = tested on: RAG2; conditions: GST-tagged RAG2; histone peptide array; arrays performed twice, n of 4
How it was run: as §1

[20] = tested on: CHD5 (PCC); conditions: GST-tagged CHD5 (PCC = PHD + Dual Chromodomain); histone peptide array; arrays performed twice, n of 4
How it was run: as §1

[21] = tested on: CHD4 (PPCC); conditions: GST-tagged CHD4 (PPCC = Dual PHD + Dual Chromodomain); histone peptide array; arrays performed twice, n of 4
How it was run: as §1

[22] = tested on: ING3; conditions: GST-tagged ING3; histone peptide array; arrays performed twice, n of 4
How it was run: as §1

[23] = tested on: KDM5A (3); conditions: GST-tagged KDM5A (3); histone peptide array; arrays performed twice, n of 4
How it was run: as §1

[24] = tested on: TAF3; conditions: GST-tagged TAF3; histone peptide array; arrays performed twice, n of 4
How it was run: as §1

[25] = tested on: PHF2; conditions: GST-tagged PHF2; histone peptide array; arrays performed twice, n of 4
How it was run: as §1

[26] = tested on: KDM7A; conditions: GST-tagged KDM7A; histone peptide array; arrays performed twice, n of 4
How it was run: as §1

[27] = tested on: BPTF (PB); conditions: GST-tagged BPTF (PB = PHD + Bromodomain); histone peptide array; arrays performed twice, n of 4
How it was run: as §1

[28] = tested on: SP140L; conditions: GST-tagged SP140L; histone peptide array; arrays performed twice, n of 4
How it was run: as §1

[29] = tested on: DIDO1; conditions: GST-tagged DIDO1; histone peptide array; arrays performed twice, n of 4
How it was run: as §1

[30] = tested on: MORC3 (CW); conditions: GST-tagged MORC3 (CW = CW-type Zn-finger); histone peptide array; arrays performed twice, n of 4
How it was run: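 A peptide microarray holding 293 synthetic histone peptides with individual or combinatorial modifications was probed with each GST-PHD protein at 0.5 μM. Values represent mean intensity (±SD) from four replicates.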

[31] = tested on: ING4; conditions: GST-tagged ING4; histone peptide array; arrays performed twice, n of 4
How it was run: as §1

H4K12ac + K16ac + K20me1: H4 11-27
Array Heatmap signal, TRIM66 (PB) [1]: 0.5407
Array Heatmap signal, KDM4C (TTP) [2]: 0.4269
Array Heatmap signal, MLL5 [3]: 0.5572
Array Heatmap signal, KDM5B (1) [4]: 0.5461
Array Heatmap signal, KDM5B (3) [5]: 0.4151
Array Heatmap signal, PHF23 [6]: 0.5291
Array Heatmap signal, ING1 [7]: 0.5716
Array Heatmap signal, ING5 [8]: 0.3345
Array Heatmap signal, CHD5 (PPCC) [9]: 0.5143
Array Heatmap signal, PHF8 [10]: 0.3408
Array Heatmap signal, PHRF1 (RP) [11]: 0.4296
Array Heatmap signal, DPF2 (PPC2W2) [12]: 0.6625
Array Heatmap signal, ING2 [13]: 0.5978
Array Heatmap signal, AIRE (PP) [14]: 0.384
Array Heatmap signal, PHF21A [15]: 0.4255
Array Heatmap signal, BAZ2B [16]: 0.4211
Array Heatmap signal, PHF13 [17]: 0.5671
Array Heatmap signal, KDM5A (1) [18]: 0.4176
Array Heatmap signal, RAG2 [19]: 0.2293
Array Heatmap signal, CHD5 (PCC) [20]: 0.6765
Array Heatmap signal, CHD4 (PPCC) [21]: 0.5474
Array Heatmap signal, ING3 [22]: 0.451
Array Heatmap signal, KDM5A (3) [23]: 0.4519
Array Heatmap signal, TAF3 [24]: 0.2511
Array Heatmap signal, PHF2 [25]: 0.5516
Array Heatmap signal, KDM7A [26]: 0.3032
Array Heatmap signal, BPTF (PB) [27]: 0.3283
Array Heatmap signal, SP140L [28]: 0.3459
Array Heatmap signal, DIDO1 [29]: 0.7187
Array Heatmap signal, MORC3 (CW) [30]: 0.3309
Array Heatmap signal, ING4 [31]: 0.4334

H4K12ac + K16ac + K20me2: H4 11-27
Array Heatmap signal, TRIM66 (PB) [1]: 0.6093
Array Heatmap signal, KDM4C (TTP) [2]: 0.537
Array Heatmap signal, MLL5 [3]: 0.5834
Array Heatmap signal, KDM5B (1) [4]: 0.6899
Array Heatmap signal, KDM5B (3) [5]: 0.5172
Array Heatmap signal, PHF23 [6]: 0.5618
Array Heatmap signal, ING1 [7]: 0.5241
Array Heatmap signal, ING5 [8]: 0.405
Array Heatmap signal, CHD5 (PPCC) [9]: 0.6049
Array Heatmap signal, PHF8 [10]: 0.3877
Array Heatmap signal, PHRF1 (RP) [11]: 0.4498
Array Heatmap signal, DPF2 (PPC2W2) [12]: 0.6546
Array Heatmap signal, ING2 [13]: 0.6089
Array Heatmap signal, AIRE (PP) [14]: 0.4913
Array Heatmap signal, PHF21A [15]: 0.4824
Array Heatmap signal, BAZ2B [16]: 0.5022
Array Heatmap signal, PHF13 [17]: 0.6561
Array Heatmap signal, KDM5A (1) [18]: 0.4994
Array Heatmap signal, RAG2 [19]: 0.281
Array Heatmap signal, CHD5 (PCC) [20]: 0.8229
Array Heatmap signal, CHD4 (PPCC) [21]: 0.5676
Array Heatmap signal, ING3 [22]: 0.5264
Array Heatmap signal, KDM5A (3) [23]: 0.5092
Array Heatmap signal, TAF3 [24]: 0.2922
Array Heatmap signal, PHF2 [25]: 0.4604
Array Heatmap signal, KDM7A [26]: 0.418
Array Heatmap signal, BPTF (PB) [27]: 0.3936
Array Heatmap signal, SP140L [28]: 0.3577
Array Heatmap signal, DIDO1 [29]: 0.7262
Array Heatmap signal, MORC3 (CW) [30]: 0.4076
Array Heatmap signal, ING4 [31]: 0.4756

H4K12ac + K16ac + K20me3: H4 11-27
Array Heatmap signal, TRIM66 (PB) [1]: 0.6534
Array Heatmap signal, KDM4C (TTP) [2]: 0.5508
Array Heatmap signal, MLL5 [3]: 0.5614
Array Heatmap signal, KDM5B (1) [4]: 0.6527
Array Heatmap signal, KDM5B (3) [5]: 0.5038
Array Heatmap signal, PHF23 [6]: 0.5129
Array Heatmap signal, ING1 [7]: 0.5304
Array Heatmap signal, ING5 [8]: 0.3933
Array Heatmap signal, CHD5 (PPCC) [9]: 0.6012
Array Heatmap signal, PHF8 [10]: 0.3563
Array Heatmap signal, PHRF1 (RP) [11]: 0.4386
Array Heatmap signal, DPF2 (PPC2W2) [12]: 0.7109
Array Heatmap signal, ING2 [13]: 0.5812
Array Heatmap signal, AIRE (PP) [14]: 0.5868
Array Heatmap signal, PHF21A [15]: 0.52
Array Heatmap signal, BAZ2B [16]: 0.5532
Array Heatmap signal, PHF13 [17]: 0.6523
Array Heatmap signal, KDM5A (1) [18]: 0.5006
Array Heatmap signal, RAG2 [19]: 0.2525
Array Heatmap signal, CHD5 (PCC) [20]: 0.9097
Array Heatmap signal, CHD4 (PPCC) [21]: 0.6123
Array Heatmap signal, ING3 [22]: 0.4869
Array Heatmap signal, KDM5A (3) [23]: 0.4096
Array Heatmap signal, TAF3 [24]: 0.2674
Array Heatmap signal, PHF2 [25]: 0.4705
Array Heatmap signal, KDM7A [26]: 0.4502
Array Heatmap signal, BPTF (PB) [27]: 0.3647
Array Heatmap signal, SP140L [28]: 0.368
Array Heatmap signal, DIDO1 [29]: 0.6408
Array Heatmap signal, MORC3 (CW) [30]: 0.4027
Array Heatmap signal, ING4 [31]: 0.5105
